Test results published in patent publication US12173020B2, “New-type oxazolidinone compounds and preparation method therefor” (priority 2019, dated 2024).

Columns and labels:
[1] = system: vancomycin-resistant Enterococcus (VRE); assay: agar dilution method, inhibitory effect on VRE; format: cell-based; details: for MIC50: Enterococcus, read-out: Minimum inhibitory concentration (MIC50, μg/ml) VRE
Excerpt: (§1) In order to determine the antibacterial activity of these new oxazolidinone-based compounds, an agar dilution method was used to test the inhibitory effect on methicillin-resistant Staphylococcus aureus (MRSA) and vancomycin-resistant Enterococcus (VRE). The bacteria inhibition effect was expressed as minimum inhibitory concentration (MIC50, μg/ml) The test results are shown in the following table.

[2] = system: methicillin-resistant Staphylococcus aureus (MRSA); assay: agar dilution method, inhibitory effect on MRSA; format: cell-based; details: for MIC50: Staphylococcus aureus, read-out: Minimum inhibitory concentration (MIC50, μg/ml) MRSA
Excerpt: as §1

SMILES	Minimum inhibitory concentration (MIC50, μg/ml) VRE [1]	Minimum inhibitory concentration (MIC50, μg/ml) MRSA [2]	MIC50 [1]	MIC50 [2]
Cn1nnc(-c2ccc(-c3ccc(N4C[C@@H](C(OP(=O)(O)O)C(F)F)OC4=O)cc3F)cn2)n1 (stereo partly drawn) [compound 128, (S)-3-(3-fluoro-4-(6-(2-methyl-2H-tetrazol-5-yl)pyridin-3-yl)phenyl)-5-(1-hydroxy-2-difluoroethyl) oxazolidin-2-one phosphate]	0.5 µg/mL	0.5 µg/mL	–	–
CCn1nnc(-c2ccc(-c3ccc(N4C[C@@H](C(O)F)OC4=O)cc3F)cn2)n1.O=P(O)(O)O (stereo partly drawn) [compound 102, (S)-3-(3-fluoro-4-(6-(2-ethyl-2H-tetrazol-5-yl)pyridin-3-yl)phenyl)-5-(hydroxyfluoromethyl) oxazolidin-2-one phosphate]	–	–	0.2 µg/mL	0.2 µg/mL
Cn1nnc(-c2ccc(-c3ccc(N4C[C@H](C(O)C(F)(F)F)OC4=O)cc3F)cn2)n1.O=P(O)(O)O (stereo partly drawn) [compound 93, (R)-3-(3-fluoro-4-(6-(2-methyl-2H-tetrazol-5-yl)pyridin-3-yl)phenyl)-5-(1-hydroxy-2-trifluoroethyl) oxazolidin-2-one phosphate]	0.7 µg/mL	0.7 µg/mL	–	–
CCn1nnc(-c2ccc(-c3ccc(N4C[C@H](C(O)C(F)F)OC4=O)cc3F)cn2)n1.O=P(O)(O)O (stereo partly drawn) [compound 133, (R)-3-(3-fluoro-4-(6-(2-ethyl-2H-tetrazol-5-yl)pyridin-3-yl)phenyl)-5-(1-hydroxy-2-difluoroethyl) oxazolidin-2-one phosphate]	0.2 µg/mL	0.3 µg/mL	–	–
O=C1O[C@@H](C(O)F)CN1c1ccc(-c2ccc(-c3nnn(C4CC4)n3)nc2)c(F)c1.O=P(O)(O)O (stereo partly drawn) [compound 117]	0.4 µg/mL	0.4 µg/mL	–	–
C=Cn1nnc(-c2ccc(-c3ccc(N4C[C@H](CO)OC4=O)cc3F)cn2)n1.O=P(O)(O)O [compound 85, (R)-3-(3-fluoro-4-(6-(2-vinyl-2H-tetrazol-5-yl)pyridin-3-yl)phenyl)-5-(hydroxymethyl) oxazolidin-2-one phosphate]	–	–	0.2 µg/mL	0.2 µg/mL
CCCn1nnc(-c2ccc(-c3ccc(N4C[C@@H](C(O)CC)OC4=O)cc3F)cn2)n1.O=P(O)(O)O (stereo partly drawn) [compound 108, (S)-3-(3-fluoro-4-(6-(2-propyl-2H-tetrazol-5-yl)pyridin-3-yl)phenyl)-5-(1-hydroxypropyl) oxazolidin-2-one phosphate]	–	–	0.4 µg/mL	0.5 µg/mL
C=Cn1nnc(-c2ccc(-c3ccc(N4C[C@H](C(O)CC)OC4=O)cc3F)cn2)n1.O=P(O)(O)O (stereo partly drawn) [compound 123, (R)-3-(3-fluoro-4-(6-(2-vinyl-2H-tetrazol-5-yl)pyridin-3-yl)phenyl)-5-(1-hydroxypropyl) oxazolidin-2-one phosphate]	–	–	0.3 µg/mL	0.3 µg/mL
CC(O)[C@H]1CN(c2ccc(-c3ccc(-c4nnn(C5CC5)n4)nc3)c(F)c2)C(=O)O1.O=P(O)(O)O (stereo partly drawn) [compound 113, (R)-3-(3-fluoro-4-(6-(2-cyclopropyl-2H-tetrazol-5-yl)pyridin-3-yl)phenyl)-5-(1-hydroxyethyl) oxazolidin-2-one phosphate]	–	–	0.2 µg/mL	0.2 µg/mL
CCCn1nnc(-c2ccc(-c3ccc(N4C[C@H](C(O)CC)OC4=O)cc3F)cn2)n1.O=P(O)(O)O (stereo partly drawn) [compound 107, (R)-3-(3-fluoro-4-(6-(2-propyl-2H-tetrazol-5-yl)pyridin-3-yl)phenyl)-5-(1-hydroxypropyl) oxazolidin-2-one phosphate]	–	–	0.8 µg/mL	0.8 µg/mL
O=C1O[C@H](C(F)OP(=O)(O)O)CN1c1ccc(-c2ccc(-c3nnn(C4CC4)n3)nc2)c(F)c1 (stereo partly drawn) [compound 118, (S)-3-(3-fluoro-4-(6-(2-cyclopropyl-2H-tetrazol-5-yl)pyridin-3-yl)phenyl)-5-(hydroxyfluoromethyl)) oxazolidin-2-one phosphate]	0.6 µg/mL	0.6 µg/mL	–	–
CCCn1nnc(-c2ccc(-c3ccc(N4C[C@H](C(O)C(F)(F)F)OC4=O)cc3F)cn2)n1.O=P(O)(O)O (stereo partly drawn) [compound 103, (R)-3-(3-fluoro-4-(6-(2-propyl-2H-tetrazol-5-yl)pyridin-3-yl)phenyl)-5-(1-hydroxy-2-trifluoroethyl) oxazolidin-2-one phosphate]	0.7 µg/mL	0.7 µg/mL	–	–
O=C1O[C@@H](CO)CN1c1ccc(-c2ccc(-c3nnn(C4CC4)n3)nc2)c(F)c1.O=P(O)(O)O [compound 83, (R)-3-(3-fluoro-4-(6-(2-cyclopropyl-2H-tetrazol-5-yl)pyridin-3-yl)phenyl)-5-(hydroxymethyl) oxazolidin-2-one phosphate]	–	–	0.7 µg/mL	0.8 µg/mL
CCCn1nnc(-c2ccc(-c3ccc(N4C[C@@H](C(O)C5CC5)OC4=O)cc3F)cn2)n1.O=P(O)(O)O (stereo partly drawn) [compound 144, (S)-3-(3-fluoro-4-(6-(2-propyl-2H-tetrazol-5-yl)pyridin-3-yl)phenyl)-5-(1-hydroxy-1-cyclopropylmethyl) oxazolidin-2-one phosphate]	–	–	0.4 µg/mL	0.4 µg/mL
CCC(O)[C@@H]1CN(c2ccc(-c3ccc(-c4nnn(CC)n4)nc3)c(F)c2)C(=O)O1.O=P(O)(O)O (stereo partly drawn) [compound 100, (S)-3-(3-fluoro-4-(6-(2-ethyl-2H-tetrazol-5-yl)pyridin-3-yl)phenyl)-5-(1-hydroxypropyl) oxazolidin-2-one phosphate]	–	–	0.3 µg/mL	0.2 µg/mL
C=Cn1nnc(-c2ccc(-c3ccc(N4C[C@H](C(C)O)OC4=O)cc3F)cn2)n1.O=P(O)(O)O (stereo partly drawn) [compound 121, (R)-3-(3-fluoro-4-(6-(2-vinyl-2H-tetrazol-5-yl)pyridin-3-yl)phenyl)-5-(1-hydroxyethyl) oxazolidin-2-one phosphate]	–	–	1.1 µg/mL	1.1 µg/mL
C=Cn1nnc(-c2ccc(-c3ccc(N4C[C@H](C(O)C(F)(F)F)OC4=O)cc3F)cn2)n1.O=P(O)(O)O (stereo partly drawn) [compound 119, (R)-3-(3-fluoro-4-(6-(2-vinyl-2H-tetrazol-5-yl)pyridin-3-yl)phenyl)-5-(1-hydroxy-2-trifluoroethyl) oxazolidin-2-one phosphate]	0.7 µg/mL	0.7 µg/mL	–	–
C=Cn1nnc(-c2ccc(-c3ccc(N4C[C@@H](C(O)CC)OC4=O)cc3F)cn2)n1.O=P(O)(O)O (stereo partly drawn) [compound 124, (S)-3-(3-fluoro-4-(6-(2-vinyl-2H-tetrazol-5-yl)pyridin-3-yl)phenyl)-5-(1-hydroxypropyl) oxazolidin-2-one phosphate]	–	–	0.2 µg/mL	0.2 µg/mL
CCC(O)[C@@H]1CN(c2ccc(-c3ccc(-c4nnn(C)n4)nc3)c(F)c2)C(=O)O1.O=P(O)(O)O (stereo partly drawn) [compound 90, (S)-3-(3-fluoro-4-(6-(2-methyl-2H-tetrazol-5-yl)pyridin-3-yl)phenyl)-5-(1-hydroxypropyl) oxazolidin-2-one phosphate]	–	–	2 µg/mL	2 µg/mL
Cn1nnc(-c2ccc(-c3ccc(N4C[C@H](C(O)C5CC5)OC4=O)cc3F)cn2)n1.O=P(O)(O)O (stereo partly drawn) [compound 131, (R)-3-(3-fluoro-4-(6-(2-methyl-2H-tetrazol-5-yl)pyridin-3-yl)phenyl)-5-(1-hydroxy-1-cyclopropylmethyl) oxazolidin-2-one phosphate]	–	–	0.1 µg/mL	0.2 µg/mL
C=Cn1nnc(-c2ccc(-c3ccc(N4C[C@@H](C(O)C(F)F)OC4=O)cc3F)cn2)n1.O=P(O)(O)O (stereo partly drawn) [compound 152, (S)-3-(3-fluoro-4-(6-(2-vinyl-2H-tetrazol-5-yl)pyridin-3-yl)phenyl)-5-(1-hydroxy-2-difluoroethyl) oxazolidin-2-one phosphate]	0.2 µg/mL	0.3 µg/mL	–	–
C=Cn1nnc(-c2ccc(-c3ccc(N4C[C@@H](CO)OC4=O)cc3F)cn2)n1.O=P(O)(O)O [compound 86, (S)-3-(3-fluoro-4-(6-(2-vinyl-2H-tetrazol-5-yl)pyridin-3-yl)phenyl)-5-(hydroxymethyl) oxazolidin-2-one phosphate]	–	–	0.3 µg/mL	0.3 µg/mL
Cn1nnc(-c2ccc(-c3ccc(N4C[C@H](COP(=O)(O)O)OC4=O)cc3F)cn2)n1 [Tedizolid phosphate, reference compound]	–	–	2 µg/mL	2 µg/mL
CC(O)[C@H]1CN(c2ccc(-c3ccc(-c4nnn(C)n4)nc3)c(F)c2)C(=O)O1.O=P(O)(O)O (stereo partly drawn) [compound 87, (R)-3-(3-fluoro-4-(6-(2-methyl-2H-tetrazol-5-yl)pyridin-3-yl)phenyl)-5-(1-hydroxyethyl) oxazolidin-2-one phosphate]	–	–	0.3 µg/mL	0.3 µg/mL
CCCn1nnc(-c2ccc(-c3ccc(N4C[C@H](CO)OC4=O)cc3F)cn2)n1.O=P(O)(O)O [compound 81, (R)-3-(3-fluoro-4-(6-(2-propyl-2H-tetrazol-5-yl)pyridin-3-yl)phenyl)-5-(hydroxymethyl) oxazolidin-2-one phosphate]	–	–	1.2 µg/mL	1.2 µg/mL
CCCn1nnc(-c2ccc(-c3ccc(N4C[C@H](C(C)O)OC4=O)cc3F)cn2)n1.O=P(O)(O)O (stereo partly drawn) [compound 105, (R)-3-(3-fluoro-4-(6-(2-propyl-2H-tetrazol-5-yl)pyridin-3-yl)phenyl)-5-(1-hydroxyethyl) oxazolidin-2-one phosphate]	–	–	1.3 µg/mL	1.4 µg/mL
CCn1nnc(-c2ccc(-c3ccc(N4C[C@H](C(O)C5CC5)OC4=O)cc3F)cn2)n1.O=P(O)(O)O (stereo partly drawn) [compound 137, (R)-3-(3-fluoro-4-(6-(2-ethyl-2H-tetrazol-5-yl)pyridin-3-yl)phenyl)-5-(1-hydroxy-1-cyclopropylmethyl) oxazolidin-2-one phosphate]	–	–	1.1 µg/mL	1.5 µg/mL
